Data on one compound can be found in article PMC9886279, “A choline-releasing glycerophosphodiesterase essential for phosphatidylcholine biosynthesis and blood stage development in the malaria parasite” (eLife, 2022).

This experiment concerns the target T1, PfGDPD-HA (PfGDPD; glycerophosphodiesterase) (Plasmodium falciparum, UniProt Q8IM31).
T1 construct: gene PF3D7_1406300; endogenous locus, recodonised segment 24-475 aa, C-terminal 3xHA tag kept; 475-residue precursor with N-terminal signal peptide
Kind of experiment: LC-MS/MS of GPC consumption and choline release by bead-bound affinity-purified enzyme. Type of experiment: biochemical. As to conditions: enzyme immobilised on anti-HA beads; 100 mM HEPES pH 7.5, 150 mM NaCl, 10 mM MgCl2, 37°C; GPC 1 mM (Methods) or 10 mM (Figure 6 legend).

T1 sequence (Q8IM31 entry or part of it): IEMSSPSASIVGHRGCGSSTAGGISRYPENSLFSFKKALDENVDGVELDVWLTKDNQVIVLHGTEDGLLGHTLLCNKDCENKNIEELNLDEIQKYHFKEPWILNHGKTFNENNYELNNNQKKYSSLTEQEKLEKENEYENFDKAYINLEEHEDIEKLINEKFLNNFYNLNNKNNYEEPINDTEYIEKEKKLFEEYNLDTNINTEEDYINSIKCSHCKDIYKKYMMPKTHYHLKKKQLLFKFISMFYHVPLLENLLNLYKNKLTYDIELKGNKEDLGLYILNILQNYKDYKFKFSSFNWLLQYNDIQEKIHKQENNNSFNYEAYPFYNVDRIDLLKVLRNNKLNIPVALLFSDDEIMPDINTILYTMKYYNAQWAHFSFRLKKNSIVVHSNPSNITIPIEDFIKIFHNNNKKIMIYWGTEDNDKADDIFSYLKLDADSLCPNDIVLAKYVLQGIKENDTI

For the compound `C[N+](C)(C)CCOP(=O)([O-])OC[C@H](O)CO` [GPC], the “LC-MS/MS of GPC consumption and choline release by bead-bound affinity-purified” value is reported as “resulted in the time-dependent appearance of choline with a concomitant decrease in GPC levels”.
